Laboratory results: US12084443B2, “Process of preparing a PD-1/PD-L1 inhibitor” (Incyte Corporation, priority 2020, dated 2024)

Biological target: T1, PD-1/PD-L1 protein/protein interaction (Homo sapiens, UniProt Q9NZQ7)
T1 construct: Recombinant human PD-L1 protein (19-238) with a His-tag at the C-terminus; purchased AcroBiosystems PD1-H5229 (PD-L1); PD1-H5257 (PD-1)
Assay: PD-1/PD-L1 Homogeneous Time-Resolved Fluorescence (HTRF) binding assay
Details: recombinant human PD-1 (25-167) Fc tag and PD-L1 (19-238) His-tag, 25° C., PBS pH 7.4
Description: Example A. PD-1/PD-L1 Homogeneous Time-Resolved Fluorescence (HTRF) Binding Assay The assays were conducted in a standard black 384-well polystyrene plate with a final volume of 20 μL. Inhibitors were first serially diluted in DMSO and then added to the plate wells before the addition of other reaction components. The final concentration of DMSO in the assay was 1%. The assays were carried out at 25° C. in the PBS buffer (pH 7.4) with 0.05% Tween-20 and 0.1% BSA. Recombinant human PD-L1 protein (19-238) with a His-tag at the C-terminus was purchased from AcroBiosystems (PD1-H5229). Recombinant human PD-1 protein (25-167) with Fc tag at the C-terminus was also purchased from AcroBiosystems (PD1-H5257). PD-L1 and PD-1 proteins were diluted in the assay buffer and 10 μL was added to the plate well. Plates were centrifuged and proteins were preincubated with inhibitors for 40 minutes. The incubation was followed by the addition of 10 μL of HTRF detection buffer supplemented with Europium cryptate-labeled anti-human IgG (PerkinElmer-AD0212) specific for Fc and anti-His antibody conjugated to SureLight®-Allophycocyanin (APC, PerkinElmer-AD0059H). After centrifugation, the plate was incubated at 25° C. for 60 min. before reading on a PHERAstar FS plate reader (665 nm/620 nm ratio). […]

T1 sequence (Q9NZQ7 19-238): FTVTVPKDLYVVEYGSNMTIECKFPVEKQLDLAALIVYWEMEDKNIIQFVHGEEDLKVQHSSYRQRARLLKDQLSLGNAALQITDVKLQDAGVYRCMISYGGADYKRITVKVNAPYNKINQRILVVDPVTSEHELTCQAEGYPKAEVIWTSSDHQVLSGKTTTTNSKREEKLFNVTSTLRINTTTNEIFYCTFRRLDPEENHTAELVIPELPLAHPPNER

SMILES: Cc1c(Nc2nccc3cc(CN4CC[C@@H](O)C4)cnc23)cccc1-c1cccc(-c2nc3cc(CN4CC[C@@H](C(=O)O)C4)cc(C#N)c3o2)c1C [Compound 1, (R)-1-((7-cyano-2-(3′-((3-(((R)-3-hydroxypyrrolidin-1-yl)methyl)-1,7-naphthyridin-8-yl)amino)-2,2′-dimethyl-[1,1′-biphenyl]-3-yl)benzo[d]oxazol-5-yl)methyl)pyrrolidine-3-carboxylic acid]
- IC50: ≤ 10 nM
